PubChem BioAssay AID1963434 (Molecular Pharmacology Branch, DTP, NCI, 2024)

Tested on: 755483-174-R-J1-PDC complex spheroid growth, percent test/control
Assay: Anticancer human tumor 755483-174-R-J1-PDC patient-derived rhabdomyosarcoma cell line growth inhibition [Asc]
Settings: for IC50: curve of first compound; for viability, T/C: stronger effect = lower value
In short: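 Complex spheroids combining tumor cells with HUVEC endothelial cells and human MSCs, at 37 degrees C, 5% CO2; agents tested alone or combined, half-log dilutions from at or near clinical Cmax, or 10 microM if Cmax unknown.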

[1] = second compound 0.01 µM, first compound 0.0316 µM
[2] = second compound 0.01 µM, first compound 0.1 µM
[3] = second compound 0.01 µM, first compound 0.316 µM
[4] = second compound 0.01 µM, first compound 1 µM
[5] = second compound 0.0316 µM, first compound 0.0316 µM
[6] = second compound 0.0316 µM, first compound 0.1 µM
[7] = second compound 0.0316 µM, first compound 0.316 µM
[8] = second compound 0.0316 µM, first compound 1 µM
[9] = second compound 0.1 µM, first compound 0.0316 µM
[10] = second compound 0.1 µM, first compound 0.1 µM
[11] = second compound 0.1 µM, first compound 0.316 µM
[12] = second compound 0.1 µM, first compound 1 µM
[13] = second compound 0.316 µM, first compound 0.0316 µM
[14] = second compound 0.316 µM, first compound 0.1 µM
[15] = second compound 0.316 µM, first compound 0.316 µM
[16] = second compound 0.316 µM, first compound 1 µM
[17] = second compound 1 µM, first compound 0.0316 µM
[18] = second compound 1 µM, first compound 0.1 µM
[19] = second compound 1 µM, first compound 0.316 µM
[20] = second compound 1 µM, first compound 1 µM
[21] = second compound 0.01 µM, first compound 0.00316 µM
[22] = second compound 0.01 µM, first compound 0.01 µM
[23] = second compound 0.0316 µM, first compound 0.00316 µM
[24] = second compound 0.0316 µM, first compound 0.01 µM
[25] = second compound 0.1 µM, first compound 0.00316 µM
[26] = second compound 0.1 µM, first compound 0.01 µM
[27] = second compound 0.316 µM, first compound 0.00316 µM
[28] = second compound 0.316 µM, first compound 0.01 µM
[29] = second compound 1 µM, first compound 0.00316 µM
[30] = second compound 1 µM, first compound 0.01 µM
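Further: spheroids exposed to compounds for seven days before readout.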

SMILES	IC50 (second compound 0.01 µM) [nM]	IC50 (second compound 0.0316 µM) [nM]	IC50 (second compound 0.1 µM) [nM]	IC50 (second compound 0.316 µM) [nM]	IC50 (second compound 1 µM) [nM]	viability, T/C [1] [%]	viability, T/C [2] [%]	viability, T/C [3] [%]	viability, T/C [4] [%]	viability, T/C [5] [%]	viability, T/C [6] [%]	viability, T/C [7] [%]	viability, T/C [8] [%]	viability, T/C [9] [%]	viability, T/C [10] [%]	viability, T/C [11] [%]	viability, T/C [13] [%]	viability, T/C [14] [%]	viability, T/C [17] [%]	viability, T/C [18] [%]	other results
C=CC(=O)N1CCN(c2nc(=O)n(-c3c(C)ccnc3C(C)C)c3nc(-c4c(O)cccc4F)c(F)cc23)C(C)C1 (stereo not given) + CNC(C)C(=O)NC1CN(S(=O)(=O)c2cccc(S(=O)(=O)N3CCC4CCC(C(=O)NC(c5ccccc5)c5ccccc5)N4C(=O)C(NC(=O)C(C)NC)C3)c2)CCC2CCC(C(=O)NC(c3ccccc3)c3ccccc3)N2C1=O	> 10000	> 10000	31.6	< 31.6	< 31.6	80.2	89.3	75.2	61.4	51.8	77.5	61.4	56.6	53.4	54.7	44.6	38.4	36.2	32.4	28.9	viability, T/C (second compound 0.01 µM, first compound 3.16 µM): 80.5%; viability, T/C (second compound 0.01 µM, first compound 10 µM): 63%; viability, T/C (second compound 0.0316 µM, first compound 3.16 µM): 75.1%; viability, T/C (second compound 0.0316 µM, first compound 10 µM): 37.7%; viability, T/C [12]: 59.2%; viability, T/C (second compound 0.1 µM, first compound 3.16 µM): 69.8%; viability, T/C (second compound 0.1 µM, first compound 10 µM): 51.1%; viability, T/C [15]: 44.4%; viability, T/C [16]: 61.1%; viability, T/C (second compound 0.316 µM, first compound 3.16 µM): 46.2%; viability, T/C (second compound 0.316 µM, first compound 10 µM): 43.9%; viability, T/C [19]: 33.6%; viability, T/C [20]: 35.5%; viability, T/C (second compound 1 µM, first compound 3.16 µM): 39.9%; viability, T/C (second compound 1 µM, first compound 10 µM): 36%
COc1c(OCCCN2CCOCC2)ccc2c3n(c(=NC(=O)c4cnc(N)nc4)nc12)CCN3 + CNC(C)C(=O)NC1CN(S(=O)(=O)c2cccc(S(=O)(=O)N3CCC4CCC(C(=O)NC(c5ccccc5)c5ccccc5)N4C(=O)C(NC(=O)C(C)NC)C3)c2)CCC2CCC(C(=O)NC(c3ccccc3)c3ccccc3)N2C1=O	21.4	< 3.16	< 3.16	< 3.16	< 3.16	45.7	20.4	8.95	3.6	40.2	19	5.22	3.87	35.6	11.6	6.95	51	13.7	24.5	27.5	viability, T/C [21]: 59.1%; viability, T/C [22]: 59.4%; viability, T/C [23]: 41.9%; viability, T/C [24]: 56.3%; viability, T/C [25]: 36%; viability, T/C [26]: 43.2%; viability, T/C [12]: 3.25%; viability, T/C [27]: 32%; viability, T/C [28]: 29.7%; viability, T/C [15]: 6.6%; viability, T/C [16]: 1.75%; viability, T/C [29]: 35.4%; viability, T/C [30]: 16.7%; viability, T/C [19]: 22.7%; viability, T/C [20]: 1.36%
NC1CCC(NC2CC2c2ccccc2)CC1 (stereo not given) + CNC(C)C(=O)NC1CN(S(=O)(=O)c2cccc(S(=O)(=O)N3CCC4CCC(C(=O)NC(c5ccccc5)c5ccccc5)N4C(=O)C(NC(=O)C(C)NC)C3)c2)CCC2CCC(C(=O)NC(c3ccccc3)c3ccccc3)N2C1=O	< 0.316	< 0.316	< 0.316	< 0.316	< 0.316	50.3	45.1	–	–	28.9	30	–	–	45.8	28.4	–	21.3	29.5	21.7	25.7	viability, T/C (second compound 0.01 µM, first compound 0.000316 µM): 27.4%; viability, T/C (second compound 0.01 µM, first compound 0.001 µM): 38.9%; viability, T/C [21]: 36.8%; viability, T/C [22]: 48.5%; viability, T/C (second compound 0.0316 µM, first compound 0.000316 µM): 36.4%; viability, T/C (second compound 0.0316 µM, first compound 0.001 µM): 24.9%; viability, T/C [23]: 31.8%; viability, T/C [24]: 37.5%; viability, T/C (second compound 0.1 µM, first compound 0.000316 µM): 32.6%; viability, T/C (second compound 0.1 µM, first compound 0.001 µM): 27.7%; viability, T/C [25]: 33.4%; viability, T/C [26]: 31.4%; viability, T/C (second compound 0.316 µM, first compound 0.000316 µM): 26.7%; viability, T/C (second compound 0.316 µM, first compound 0.001 µM): 33.6%; viability, T/C [27]: 37.8%; viability, T/C [28]: 29.1%; viability, T/C (second compound 1 µM, first compound 0.000316 µM): 25.9%; viability, T/C (second compound 1 µM, first compound 0.001 µM): 8.86%; viability, T/C [29]: 23.5%; viability, T/C [30]: 20%
